IC50 data for 21 molecules are collected here from US20260297080A1, “BICYCLIC COMPOUNDS AS CDK INHIBITORS” (BeOne Medicines I GmbH, priority 2022, published 2026).

One assay addresses CDK1/Cyclin B1 (Homo sapiens, UniProt P06493). In words: CDK1/Cyclin B1 Biochemical Assay (TR-FRET), 0.015 mM ATP. The note with it: 0.15 μM Rb (Ser780)-biotin substrate, pH7.0, 60 min preincubation, 120 min reaction, room temperature. In outline: (§1)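 TR-FRET readout: 665/620 nm ratio from Eu-cryptate anti-pRb(Ser780) antibody plus streptavidin-XL665, converted to % inhibition and fitted (4-parameter logistic) for IC50. Reactions used 0.15 μM biotinylated Rb (Ser780) substrate, compound 0–10 μM, 60 min enzyme–compound preincubation, then 120 min reaction at room temperature.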
On the technique in general: TR-FRET usually uses a lanthanide donor and a delayed reading to cut background.

In the next assay the target is CDK2/Cyclin E1 (Homo sapiens, UniProt P24941). Kind of assay: CDK2/Cyclin E1 Biochemical Assay (TR-FRET), 0.060 mM ATP. Particulars: 0.15 μM Rb (Ser780)-biotin substrate, pH7.0, 60 min preincubation, 120 min reaction, room temperature. In outline: as §1

Bounds are passed on as bounds.

Chain of CDK1/Cyclin B1 (P06493 whole entry): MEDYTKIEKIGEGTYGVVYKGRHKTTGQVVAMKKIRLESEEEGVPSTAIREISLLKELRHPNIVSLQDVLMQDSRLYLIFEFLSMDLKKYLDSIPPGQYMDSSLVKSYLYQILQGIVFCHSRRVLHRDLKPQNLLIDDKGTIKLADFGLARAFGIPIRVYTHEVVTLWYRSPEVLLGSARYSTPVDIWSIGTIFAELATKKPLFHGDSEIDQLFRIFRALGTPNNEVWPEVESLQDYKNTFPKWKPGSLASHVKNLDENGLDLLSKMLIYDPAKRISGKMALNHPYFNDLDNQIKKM
Chain of CDK1/Cyclin B1 (P14635 whole entry partner): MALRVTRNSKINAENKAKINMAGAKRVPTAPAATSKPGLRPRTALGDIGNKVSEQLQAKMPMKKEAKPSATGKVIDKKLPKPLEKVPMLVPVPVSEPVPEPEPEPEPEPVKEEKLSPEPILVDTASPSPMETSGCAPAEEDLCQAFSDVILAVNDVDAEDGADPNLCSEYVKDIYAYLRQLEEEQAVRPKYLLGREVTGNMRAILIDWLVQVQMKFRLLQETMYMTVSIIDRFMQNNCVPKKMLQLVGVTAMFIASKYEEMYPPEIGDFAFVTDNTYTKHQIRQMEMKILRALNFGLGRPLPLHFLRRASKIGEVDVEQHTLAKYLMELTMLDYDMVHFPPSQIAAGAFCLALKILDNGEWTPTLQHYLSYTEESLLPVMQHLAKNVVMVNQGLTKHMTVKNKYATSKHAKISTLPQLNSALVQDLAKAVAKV

The IC50 is the midpoint of a concentration-inhibition curve. Read a low IC50 as greater potency. `CC(C)NC(=O)O[C@H]1CC[C@@H](c2cc(Nc3ccc4c(c3F)CN(CC3CN(C)C3)S4(=O)=O)n[nH]2)C1` (relative stereo) [Example 106, cis-3-(3-((4-fluoro-2-((1-methylazetidin-3-yl)methyl)-1,1-dioxido-2,3-dihydrobenzo[d]isothiazol-5-yl)amino)-1H-pyrazol-5-yl)cyclopentyl isopropylcarbamate]: the half-maximal inhibitory concentration (IC50) at CDK1/Cyclin B1 amounted to 0.631 µM; against CDK2/Cyclin E1 it was 0.006 µM.

For the molecule `CC(=O)N1CC(CN2Cc3c(ccc(Nc4cc([C@@H]5CC[C@H](OC(=O)NC(C)C)C5)[nH]n4)c3F)S2(=O)=O)C1` (relative stereo) [Example 107, cis-3-(3-((2-((1-acetylazetidin-3-yl)methyl)-4-fluoro-1,1-dioxido-2,3-dihydrobenzo[d]isothiazol-5-yl)amino)-1H-pyrazol-5-yl)cyclopentyl isopropylcarbamate], the IC50 worked out at 0.532 µM against CDK1/Cyclin B1 and 0.0096 µM on CDK2/Cyclin E1.

For `CC(C)NC(=O)O[C@H]1CC[C@@H](c2cc(Nc3ccc4c(c3F)CN(CC3CCCCC3)S4(=O)=O)n[nH]2)C1` (relative stereo) [Example 108, cis-3-(3-((2-(cyclohexylmethyl)-4-fluoro-1,1-dioxido-2,3-dihydrobenzo[d]isothiazol-5-yl)amino)-1H-pyrazol-5-yl)cyclopentyl isopropylcarbamate], the half-inhibitory concentration (IC50) on CDK1/Cyclin B1 was over 10 µM; on CDK2/Cyclin E1, 0.037 µM.

Take `CC(C)NC(=O)O[C@H]1CC[C@@H](c2cc(Nc3ccc4c(c3F)CN(C3CCCC3O)S4(=O)=O)n[nH]2)C1` (relative stereo) [Example 109, cis-3-(3-((4-fluoro-2-(2-hydroxycyclopentyl)-1,1-dioxido-2,3-dihydrobenzo[d]isothiazol-5-yl)amino)-1H-pyrazol-5-yl)cyclopentyl isopropylcarbamate]: the results for the IC50 on CDK1/Cyclin B1 and on CDK2/Cyclin E1 were 1.19 µM and 0.011 µM, respectively.

On to `CC(C)NC(=O)O[C@H]1CC[C@@H](c2cc(Nc3ccc4c(c3F)CN(CC3CCNC3=O)S4(=O)=O)n[nH]2)C1` (relative stereo) [Example 110, cis-3-(3-((4-fluoro-1,1-dioxido-2-((2-oxopyrrolidin-3-yl)methyl)-2,3-dihydrobenzo[d]isothiazol-5-yl)amino)-1H-pyrazol-5-yl)cyclopentyl isopropylcarbamate], for which the IC50 turned out to be 0.225 µM against CDK1/Cyclin B1 and 0.0027 µM on CDK2/Cyclin E1.

`CC(C)NC(=O)O[C@H]1CC[C@@H](c2cc(Nc3ccc4c(c3F)CN(CC3CCN(C)C3=O)S4(=O)=O)n[nH]2)C1` (relative stereo) [Example 111, cis-3-(3-((4-fluoro-2-((1-methyl-2-oxopyrrolidin-3-yl)methyl)-1,1-dioxido-2,3-dihydrobenzo[d]isothiazol-5-yl)amino)-1H-pyrazol-5-yl)cyclopentyl isopropylcarbamate]: the IC50 against CDK1/Cyclin B1 stood at 0.225 µM; at CDK2/Cyclin E1, 0.0021 µM.

With `CC(C)NC(=O)O[C@H]1CC[C@@H](c2cc(Nc3ccc4c(c3F)CN(CCN3CCOCC3)S4(=O)=O)n[nH]2)C1` (relative stereo) [Example 112, cis-3-(3-((4-fluoro-2-(2-morpholinoethyl)-1,1-dioxido-2,3-dihydrobenzo[d]isothiazol-5-yl)amino)-1H-pyrazol-5-yl)cyclopentyl isopropylcarbamate], the values for the IC50 at CDK1/Cyclin B1 and against CDK2/Cyclin E1 were 0.458 µM and 0.0063 µM, respectively.

As to `CC(C)NC(=O)O[C@H]1CC[C@@H](c2cc(Nc3ccc4c(c3F)CN(CCCO)S4(=O)=O)n[nH]2)C1` (relative stereo) [Example 113, cis-3-(3-((4-fluoro-2-(3-hydroxypropyl)-1,1-dioxido-2,3-dihydrobenzo[d]isothiazol-5-yl)amino)-1H-pyrazol-5-yl)cyclopentyl isopropylcarbamate], the half-maximal inhibitory concentration (IC50) was determined as 0.288 µM against CDK1/Cyclin B1 and 0.0036 µM against CDK2/Cyclin E1.

For the molecule `CC(C)NC(=O)O[C@H]1CC[C@@H](c2cc(Nc3ccc4c(c3F)CN(CCC3CCOCC3)S4(=O)=O)n[nH]2)C1` (relative stereo) [Example 114, cis-3-(3-((4-fluoro-1,1-dioxido-2-(2-(tetrahydro-2H-pyran-4-yl)ethyl)-2,3-dihydrobenzo[d]isothiazol-5-yl)amino)-1H-pyrazol-5-yl)cyclopentyl isopropylcarbamate], the IC50 came to 0.596 µM at CDK1/Cyclin B1 and 0.0096 µM at CDK2/Cyclin E1.

Turning to `CC(C)NC(=O)O[C@H]1CC[C@@H](c2cc(Nc3ccc4c(c3F)CN(C(C)C3CCOC3)S4(=O)=O)n[nH]2)C1` (relative stereo) [Example 115, cis-3-(3-((4-fluoro-1,1-dioxido-2-(1-(tetrahydrofuran-3-yl)ethyl)-2,3-dihydrobenzo[d]isothiazol-5-yl)amino)-1H-pyrazol-5-yl)cyclopentyl isopropylcarbamate], the IC50 was 0.407 µM on CDK1/Cyclin B1 and 0.006 µM at CDK2/Cyclin E1.

For `C[C@@H](CO)NC(=O)O[C@H]1CC[C@@H](c2cc(Nc3ccc4c(c3F)CN(C3CC3)S4(=O)=O)n[nH]2)C1` (relative stereo) [Example 120, cis-3-(3-((2-cyclopropyl-4-fluoro-1,1-dioxido-2,3-dihydrobenzo[d]isothiazol-5-yl)amino)-1H-pyrazol-5-yl)cyclopentyl((S)-1-hydroxypropan-2-yl)carbamate], the results for the IC50 against CDK1/Cyclin B1 and against CDK2/Cyclin E1 were 0.773 µM and 0.032 µM, respectively.

Regarding `CN1Cc2c(ccc(Nc3cc([C@@H]4CC[C@H](OC(=O)NC5(C)CC5)C4)[nH]n3)c2F)S1(=O)=O` (relative stereo) [Example 124, cis-3-(3-((4-fluoro-2-methyl-1,1-dioxido-2,3-dihydrobenzo[d]isothiazol-5-yl)amino)-1H-pyrazol-5-yl)cyclopentyl(1-methylcyclopropyl)carbamate], the half-inhibitory concentration (IC50) amounted to 0.12 µM on CDK1/Cyclin B1 and 0.0016 µM at CDK2/Cyclin E1.

As for `CCCNC(=O)O[C@H]1CC[C@@H](c2cc(Nc3ccc4c(c3F)CN(CCO)S4(=O)=O)n[nH]2)C1` (relative stereo) [Example 126, cis-3-(3-((4-fluoro-2-(2-hydroxyethyl)-1,1-dioxido-2,3-dihydrobenzo[d]isothiazol-5-yl)amino)-1H-pyrazol-5-yl)cyclopentyl propylcarbamate], the IC50 against CDK1/Cyclin B1 turned out to be 0.261 µM; against CDK2/Cyclin E1, 0.0083 µM.

In the case of `CC[C@H](C)NC(=O)O[C@H]1CC[C@@H](c2cc(Nc3ccc4c(c3F)CN(CCO)S4(=O)=O)n[nH]2)C1` (relative stereo) [Example 127, cis-3-(3-((4-fluoro-2-(2-hydroxyethyl)-1,1-dioxido-2,3-dihydrobenzo[d]isothiazol-5-yl)amino)-1H-pyrazol-5-yl)cyclopentyl((S)-sec-butyl)carbamate], the IC50 against CDK1/Cyclin B1 is 0.176 µM; on CDK2/Cyclin E1, 0.0019 µM.

`[2H]C([2H])([2H])N1Cc2c(ccc(Nc3cc([C@@H]4CC[C@H](OC(=O)NCCC)C4)[nH]n3)c2F)S1(=O)=O` (relative stereo) [Example 130, cis-3-(3-((4-fluoro-2-(methyl-d3)-1,1-dioxido-2,3-dihydrobenzo[d]isothiazol-5-yl)amino)-1H-pyrazol-5-yl)cyclopentyl propylcarbamate]: the 50% inhibitory concentration (IC50) on CDK1/Cyclin B1 was 0.241 µM; against CDK2/Cyclin E1 it was 0.0057 µM.

On to `[2H]C([2H])([2H])N1Cc2c(ccc(Nc3cc([C@@H]4CC[C@H](OC(=O)N[C@@H](C)CC)C4)[nH]n3)c2F)S1(=O)=O` (relative stereo) [Example 131, cis-3-(3-((4-fluoro-2-(methyl-d3)-1,1-dioxido-2,3-dihydrobenzo[d]isothiazol-5-yl)amino)-1H-pyrazol-5-yl)cyclopentyl((S)-sec-butyl)carbamate], for which the IC50 against CDK1/Cyclin B1 came out at 0.152 µM; at CDK2/Cyclin E1 it was 0.0014 µM.

As to `CC1(NC(=O)O[C@H]2CC[C@@H](c3cc(Nc4ccc5c(c4F)CN(C4COC4)S5(=O)=O)n[nH]3)C2)CC1` (relative stereo) [Example 135, cis-3-(3-((4-fluoro-2-(oxetan-3-yl)-1,1-dioxido-2,3-dihydrobenzo[d]isothiazol-5-yl)amino)-1H-pyrazol-5-yl)cyclopentyl(1-methylcyclopropyl)carbamate], the 50% inhibitory concentration (IC50) was 0.32 µM at CDK1/Cyclin B1 and 0.0043 µM against CDK2/Cyclin E1.

On to `CCCNC(=O)O[C@H]1CC[C@@H](c2cc(Nc3ccc4c(c3F)CN(C3COC3)S4(=O)=O)n[nH]2)C1` (relative stereo) [Example 136, cis-3-(3-((4-fluoro-2-(oxetan-3-yl)-1,1-dioxido-2,3-dihydrobenzo[d]isothiazol-5-yl)amino)-1H-pyrazol-5-yl)cyclopentyl propylcarbamate], for which the IC50 on CDK1/Cyclin B1 is 0.457 µM; against CDK2/Cyclin E1, 0.022 µM.

For the molecule `CCNC(=O)O[C@H]1CC[C@@H](c2cc(Nc3ccc4c(c3F)CNS4(=O)=O)n[nH]2)C1` (relative stereo) [Example 141, cis-3-(3-((4-fluoro-1,1-dioxido-2,3-dihydrobenzo[d]isothiazol-5-yl)amino)-1H-pyrazol-5-yl)cyclopentyl ethylcarbamate], the results for the half-maximal inhibitory concentration (IC50) against CDK1/Cyclin B1 and at CDK2/Cyclin E1 were 0.157 µM and 0.008 µM, respectively.

As to `C[C@]1(O)CC[C@@H](NC(=O)O[C@H]2CC[C@@H](c3cc(Nc4ccc5c(c4F)CNS5(=O)=O)n[nH]3)C2)CC1` (relative stereo) [Example 144, cis-3-(3-((4-fluoro-1,1-dioxido-2,3-dihydrobenzo[d]isothiazol-5-yl)amino)-1H-pyrazol-5-yl)cyclopentyl((1s,4s)-4-hydroxy-4-methylcyclohexyl)carbamate], the IC50 against CDK1/Cyclin B1 turned out to be 0.302 µM; against CDK2/Cyclin E1, 0.0039 µM.

As to `C[C@H]1[C@H](O)CN1C(=O)O[C@H]1CC[C@@H](c2cc(Nc3ccc4c(c3F)CNS4(=O)=O)n[nH]2)C1` (relative stereo) [Example 145, cis-3-(3-((4-fluoro-1,1-dioxido-2,3-dihydrobenzo[d]isothiazol-5-yl)amino)-1H-pyrazol-5-yl)cyclopentyl(2S,3R)-3-hydroxy-2-methylazetidine-1-carboxylate], the values for the IC50 on CDK1/Cyclin B1 and against CDK2/Cyclin E1 were 0.267 µM and 0.014 µM, respectively.
